Measured values: US9510521B2, “Use of abscisic acid to alter sensory characteristics of red grapes and wine” (Valent BioSciences Corporation, priority 2007, dated 2016)

Assays:
Shiraz grapes [1] = test: Foliar S-ABA on Shiraz grapes about 3 weeks before veraison: grape quality at harvest and wine quality; type: in vivo; settings: 200 ppm foliar spray approx. 3 weeks prior to veraison
Method: (§1) S-ABA (200 ppm) was applied by foliar spray using a standard vineyard airblast sprayer at 2000 L/ha to commercially grown Shiraz grapes approximately 3 weeks prior to initiation of veraison. The spray mix contained the surfactant/wetter Agral at 10 ml/100 L. Results reported are means of 4 replicates (grapes) and 3 replicates (wines) per treatment. Winemaking followed a standard small lot fermentation protocol with each replicate wine being made from 50 kg of harvested grapes.
However, at-harvest grape anthocyanin and wine color density and total phenolics are increased by S-ABA.

Shiraz grapes [2] = test: Sensory panel of 6 assessors, Shiraz wine, foliar S-ABA at veraison; type: in vivo, grape; settings: 200 ppm foliar spray at veraison
Method: S-ABA (200 ppm) was applied by foliar spray at veraison to commercially grown Shiraz grapes through standard agricultural spray equipment on 12 Jan. 2007. Kendeen 20 (Tween 20) was added to the spray mix at 50 ml/100 L. Reported results are means of 3 replicates. Winemaking followed a standard small lot fermentation protocol with each replicate wine being made from 50 kg of harvested grapes.

Shiraz grapes [3] = test: Sensory profile of Shiraz wine from S-ABA-treated fruit, 10 experienced sensory assessors; type: in vivo, grape; settings: 200 ppm foliar spray, 10 assessors
Method: as §1
Using a nine-point hedonic scale rating (dislike=1 to like=9) the sensors judged wine from the S-ABA treatment higher than the untreated (6.2 vs. 5.0, respectively) and thus a technically better wine.

Shiraz grapes [4] = test: Sensory panel of 6 assessors, Shiraz wine, drip irrigation S-ABA; type: in vivo, grape; settings: 0.4 grams per vine via drip irrigation
Method: S-ABA (0.4 grams per vine) was applied to commercially grown Shiraz grapes through the drip irrigation system at approximately 3 weeks prior to initiation of veraison. No surfactant was added to the irrigation water. Results reported are means of 3 replicates. Winemaking followed a standard small lot fermentation protocol with each replicate wine being made from 50 kg of harvested grapes.
Table 5 illustrates that S-ABA increased anthocyanin and phenolics of grape/juice at crush and wine color density and total phenolics and reduced wine hue. S-ABA had no effect on sugar, pH, or total acidity of grapes/juice at crush or on alcohol or pH of wine.

[5] = system: Cabernet Sauvignon grapes; test: Sensory panel rating of Cabernet Sauvignon wine from S-ABA treatment; type: in vivo, grape; settings: 1-5 scale, 1 = low/short, 5 = high/long
Method: S-ABA (200 ppm) was applied by foliar spray to Cabernet Sauvignon grapes when sugar levels were approximately 11 Be using a standard vineyard airblast sprayer at approximately 2000 L/ha. The spray mix contained the surfactant/wetter Agral at 10 ml/100 L. Wine was prepared from the treated and untreated grapes.

Question: Which Wine hue (Shiraz grapes [1]) does the source give for “(S)-5-(1-hydroxy-2,6,6,-trimethyl-4-oxo-2-cyclohexen-1-yl)-3-methyl-(2Z,4E)-pentadienoic acid [S-ABA]” here?
Answer: 0.56

Question: What about the “Sensory panel of 6 assessors” value (Shiraz grapes [2]) of the same substance?
Answer: more intense fruit, spice and herbaceous flavors and more tannin

Question: What about the Aroma (Shiraz grapes [3]; Shiraz wine sensory profile) of the same substance?
Answer: more intense berry aroma

Question: And the Color (Shiraz grapes [3]; Shiraz wine sensory profile)?
Answer: Increased intensity

Question: What about the Taste (Shiraz grapes [3]; Shiraz wine sensory profile) of the same substance?
Answer: more fruity, more acidic taste

Question: And the “Hedonic scale (1-dislike, 9 like)” value (Shiraz grapes [3]; Shiraz wine, nine-point hedonic scale)?
Answer: 6.2

Question: And the “Sensory panel of 6 assessors” value (Shiraz grapes [4])?
Answer: more intense fruit and was less acidic

Question: And the Body/fullness [5]?
Answer: 1.7

Question: What about the Flavor intensity [5] of the same substance?
Answer: 2.7
